Test results published in PubChem BioAssay (NCI).
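Following 48 hours of exposure in 96-well plates, responses at five concentrations were used to interpolate endpoints linearly. At the TGI there is no net growth.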

Experiments:
Assay in all cases: inhibition of tumour cell growth, NCI panel, 48 h
K-562 leukemia = system: K-562 leukemia
BT-549 breast = system: BT-549 breast
SNB-19 CNS = system: SNB-19 CNS
MOLT-4 leukemia = system: MOLT-4 leukemia
IGROV1 ovarian = system: IGROV1 ovarian
OVCAR-3 ovarian = system: OVCAR-3 ovarian
SK-MEL-5 melanoma = system: SK-MEL-5 melanoma
NCI/ADR-RES ovarian = system: NCI/ADR-RES ovarian
HT29 colon = system: HT29 colon
SR leukemia = system: SR leukemia
TK-10 renal = system: TK-10 renal
NCI-H460 lung = system: NCI-H460 lung
A549 NSCLC = system: A549 NSCLC
HL-60(TB) leukemia = system: HL-60(TB) leukemia
SK-MEL-2 melanoma = system: SK-MEL-2 melanoma
HCT-116 colon = system: HCT-116 colon
ACHN renal = system: ACHN renal
NCI-H226 lung = system: NCI-H226 lung
UO-31 renal = system: UO-31 renal
OVCAR-8 ovarian = system: OVCAR-8 ovarian
786-0 renal = system: 786-0 renal
MDA-MB-435 = system: MDA-MB-435
SK-MEL-28 melanoma = system: SK-MEL-28 melanoma
PC-3 prostate = system: PC-3 prostate
KM12 colon = system: KM12 colon
OVCAR-4 ovarian = system: OVCAR-4 ovarian
COLO 205 colon = system: COLO 205 colon
MCF7 breast = system: MCF7 breast
EKVX NSCLC = system: EKVX NSCLC
SF-295 CNS = system: SF-295 CNS
UACC-257 melanoma = system: UACC-257 melanoma
HCC-2998 colon = system: HCC-2998 colon
SN12C renal = system: SN12C renal
CAKI-1 renal = system: CAKI-1 renal
SK-OV-3 ovarian = system: SK-OV-3 ovarian
SF-268 CNS = system: SF-268 CNS
MALME-3M melanoma = system: MALME-3M melanoma
MDA-N = system: MDA-N
HOP-62 NSCLC = system: HOP-62 NSCLC
RXF 393 renal = system: RXF 393 renal
SW-620 colon = system: SW-620 colon
M14 melanoma = system: M14 melanoma
HS 578T breast = system: HS 578T breast
U251 CNS = system: U251 CNS
UACC-62 melanoma = system: UACC-62 melanoma
T-47D breast = system: T-47D breast
LOX IMVI melanoma = system: LOX IMVI melanoma
SNB-75 CNS = system: SNB-75 CNS
NCI-H522 lung = system: NCI-H522 lung
HOP-92 NSCLC = system: HOP-92 NSCLC
RPMI-8226 leukemia = system: RPMI-8226 leukemia
OVCAR-5 ovarian = system: OVCAR-5 ovarian
A498 renal = system: A498 renal
NCI-H23 lung = system: NCI-H23 lung
HCT-15 colon = system: HCT-15 colon
MDA-MB-231 breast = system: MDA-MB-231 breast
DU-145 prostate = system: DU-145 prostate
CCRF-CEM leukemia = system: CCRF-CEM leukemia
SF-539 CNS = system: SF-539 CNS

Structure (SMILES): CC12CCCCC1=C(F)C(F)(F)S2 (centres undefined)
- TGI (K-562 leukemia): 59.2 µM
- TGI (BT-549 breast): 43 µM
- TGI (SNB-19 CNS): > 100 µM
- TGI (MOLT-4 leukemia): 36 µM
- TGI (IGROV1 ovarian): > 100 µM
- TGI (OVCAR-3 ovarian): 48 µM
- TGI (SK-MEL-5 melanoma): > 91.1 µM
- TGI (NCI/ADR-RES ovarian): > 100 µM
- TGI (HT29 colon): 56.5 µM
- TGI (SR leukemia): 28 µM
- TGI (TK-10 renal): 69.9 µM
- TGI (NCI-H460 lung): > 100 µM
- TGI (A549 NSCLC): > 100 µM
- TGI (HL-60(TB) leukemia): 15.3 µM
- TGI (SK-MEL-2 melanoma): > 100 µM
- TGI (HCT-116 colon): 58.5 µM
- TGI (ACHN renal): 51.6 µM
- TGI (NCI-H226 lung): > 100 µM
- TGI (UO-31 renal): 24.4 µM
- TGI (OVCAR-8 ovarian): 77.3 µM
- TGI (786-0 renal): 45.9 µM
- TGI (MDA-MB-435): > 86.6 µM
- TGI (SK-MEL-28 melanoma): 78.2 µM
- TGI (PC-3 prostate): > 87.2 µM
- TGI (KM12 colon): > 100 µM
- TGI (OVCAR-4 ovarian): > 100 µM
- TGI (COLO 205 colon): 40.2 µM
- TGI (MCF7 breast): > 79.6 µM
- TGI (EKVX NSCLC): > 100 µM
- TGI (SF-295 CNS): > 71.4 µM
- TGI (UACC-257 melanoma): 51.6 µM
- TGI (HCC-2998 colon): > 86.5 µM
- TGI (SN12C renal): > 75.2 µM
- TGI (CAKI-1 renal): 48.9 µM
- TGI (SK-OV-3 ovarian): > 100 µM
- TGI (SF-268 CNS): > 100 µM
- TGI (MALME-3M melanoma): 58.6 µM
- TGI (MDA-N): > 46.4 µM
- TGI (HOP-62 NSCLC): > 100 µM
- TGI (RXF 393 renal): > 51.8 µM
- TGI (SW-620 colon): > 73.7 µM
- TGI (M14 melanoma): > 83.6 µM
- TGI (HS 578T breast): > 80.7 µM
- TGI (U251 CNS): > 100 µM
- TGI (UACC-62 melanoma): > 100 µM
- TGI (T-47D breast): 74.5 µM
- TGI (LOX IMVI melanoma): 82.6 µM
- TGI (SNB-75 CNS): > 100 µM
- TGI (NCI-H522 lung): 45.3 µM
- TGI (HOP-92 NSCLC): > 67.9 µM
- TGI (RPMI-8226 leukemia): 37.7 µM
- TGI (OVCAR-5 ovarian): 97.7 µM
- TGI (A498 renal): > 100 µM
- TGI (NCI-H23 lung): > 100 µM
- TGI (HCT-15 colon): 76.7 µM
- TGI (MDA-MB-231 breast): > 100 µM
- TGI (DU-145 prostate): > 100 µM
- TGI (CCRF-CEM leukemia): 22.7 µM
- TGI (SF-539 CNS): > 100 µM
